Values belong to the compound of their own block, whether it stands above or below them.
Experiments:
BCBL-1 cells = assay: Intracellular phosphorylation in KSHV-infected BCBL-1 cells (HPLC of methanolic extracts)
Method: Exponentially growing BCBL-1 cells or CEM-SS cells (a human T cell line) were washed three times with PBS and cultured in serum free AIM-V w/BSA medium (Invitrogen) at 2×10^5 cells/mL in the absence (unstimulated control) or presence of 20 ng/mL PMA. After 24 hours, unstimulated and PMA-stimulated cells were harvested, washed once with PBS and resuspended in serum free AIM-V […] radiolabeled compound [^3H]-(N)-MCT, [^3H]-CDV or [^3H]-GCV. Control cultures containing the same concentration of the test compounds but without the radiolabeled formulations were simultaneously set up in an identical manner to assess the cell counts and to evaluate their anti-KSHV activity. In selected experiments, 5′-ET was added at 10˜50 μM to investigate the changes in the anti-KSHV activity and intracellular phosphorylation profiles of the test compounds. The cells were harvested after 24 or 72 hours of incubation.
Upon harvest, the cells were centrifuged at 1,500 rpm for 10 min and washed once with cold PBS. The cell pellets were resuspended in 250 μL of 60% methanol and heated at 95° C. for 3 min, followed by a microcentrifugation at 12,000 g for 10 min at 4° C. The clarified supernatant fractions were evaporated under nitrogen, redissolved in 250 μL of water and subjected to HPLC separation of the phosphorylated metabolites as described in detail elsewhere (Noy, R. et al. 2002 Mol Cancer Ther 1:585-93; Zalah, L. et al. 2002 Antiviral Res 55:63-75). Fractions containing radiolabeled nucleotides were quantitated based on the known specific activity of the parent tritiated nucleoside (Noy, R. et al. 2002 Mol Cancer Ther 1:585-93; Zalah, L. et al. 2002 Antiviral Res 55:63-75).

[1] = tested on: PMA-stimulated BCBL-1 cells; assay: Cytotoxicity by XTT assay in BCBL-1 cells
Method: (§1) The cytotoxicity of the compounds was determined simultaneously in uninduced and PMA-induced BCBL-1 cells in microplates, using the XTT assay (Weislow, O, S. et al. 1989 J Natl Cancer Inst 81:577-86).
PMA-stimulated BCBL-1 cells were cultured with increasing concentrations of N-MCT, CDV or GCV and the cell growth was determined by XTT method (Weislow, O, S. et al. 1989 J Natl Cancer Inst 81:577-86) after 72 hours and shown as % no drug control (mean±SD of triplicate wells).

KSHV [2] = assay: Anti-KSHV activity in PMA-induced BCBL-1 cells (virion-associated and cytoplasmic KSHV DNA by PCR); format: cell-based, Kaposi's sarcoma-associated herpesvirus; conditions: for IC50 / IC90: Human gammaherpesvirus 8, BCBL1, 72 h, PMA-stimulated BCBL-1 cells, KSHV virion production, 3 days; for IC50: read-out: IC50 (μM) (mean ± SD), anti-KSHV activity; for IC90: read-out: IC90 (μM) (mean ± SD), anti-KSHV activity
Method: A small fraction (1-3%) of BCBL-1 cells in culture is known to spontaneously undergo lytic cycle and release KSHV virions (Kedes, D. H. et al. 1997 J Clin Invest 99:2082-6; Renne, R. et al. 1996 Nat Med 2:342-6). The antiviral effects of N-MCT and two reference anti-herpetic compounds, CDV and GCV, were determined by the relative reduction in the amounts of cytoplasmic KSHV DNA and newly released KSHV virion-associated DNA in BCBL-1 cells exposed to the test compounds, following lytic induction by phorbol ester, PMA (Renne, R. et al. 1996 Nat Med 2:342-6).
Exponentially growing BCBL-1 cells were washed three times with phosphate-buffered saline (PBS) and resuspended in serum free AIM-V w/BSA medium (Invitrogen, Carlsbad, Calif.) at 2×10^5 cells/mL in the absence (unstimulated control) or presence of 20 ng/mL PMA. After 24 hours, unstimulated and PMA-stimulated BCBL-1 were harvested, washed once with PBS and cultured in serum free AIM-V w/BSA medium at 2×10^5 cells/mL without PMA in the absence or presence of the test compounds at varying concentrations. After 3 days, the cells were counted by the trypan blue dye exclusion method and centrifuged at 1,500 rpm for 5 min. The supernatants were centrifuged at 3,000 rpm for 10 min before subjected to virion-derived KSHV DNA extraction and quantitation, as described below.
Low molecular weight (LMW) DNA was extracted from the pelleted cells according to Hirt's method (Hirt, B. 1967 J Mol Biol 26:365-9) and 0.1 μg of LMW DNA was used for KSHV open reading frame 65 (ORF65) PCR by a primer pair (5′-[…]-3′, SEQ ID NO: 2) and 5′-[…]-3′, SEQ ID NO: 3), generating a 529 bp fragment. The ORF65 PCR reaction mixture, containing 20 mM Tris-HCl (pH 8.4), 50 mM KCl, 2.5 mM MgCl2, 200 μM each dNTP, 0.25 U of Platinum® Taq DNA polymerase (Invitrogen), […] and template DNA, was subjected to 25 cycles of PCR amplification at 94° C. for 60 sec, 60° C. for 60 sec and 72° C. for 60 sec, followed by a final extension at 72° C. for 5 min. In addition, the mitochondrial DNA primer pair (5′-[…]-3′, SEQ ID NO: 4 and 5′-[…]-3′, SEQ ID NO: 5) was used as an internal control for each LMW DNA PCR sample (Yang, Q. et al. 2005 J Virol 79:6122-6133). The amplified products were visualized by electrophoresis on a 1.8% agarose gel.
KSHV virions were pelleted from 300 μL of BCBL-1 culture supernatants by a microcentrifugation at 37,000 g for 2 hours at 4° C. The pelleted virions were resuspended in 150 μL PBS and treated with 20 units of DNase I (Promega, Madison, Wis.) at 37° C. for 30 min to remove cellular DNA from the samples, followed by the incubation with stop solution (20 mM EGTA) at 70° C. for 5 min. Virion-associated KSHV DNA (vDNA) was then extracted by QIAamp DNA extraction kit (QIAGEN, Valencia, Calif.) according to the manufacturer's instructions. One μL of vDNA eluted in 100 μL of elution buffer was subjected to real-time quantitative PCR using a LightCycler® instrument (Roche Applied Science, Indianapolis, Ind.). The 20-μL reaction mixture consisted of the LightCycler FastStart DNA Master SYBR Green I reagents mix (Roche Applied Science), 2.5 mM MgCl2 and 500 nM each of KSHV ORF26 primer pair (5′-[…]-3′, SEQ ID NO: 6 and 5′-[…]-3′, SEQ ID NO: 7). Ten-fold serial dilutions of the plasmid, pKS330Bam (obtained through the AIDS Research and Reference Reagent Program, Division of AIDS, NIAID, NIH, contributed by Drs. Yuan Chang and Patrick Moore), which contained a 330 bp KSHV fragment encoding a portion of the ORF26 gene (Chang, Y. et al. 1994 Science 266:1865-9), were included in each assay as external standards to represent 10 to […] KSHV DNA copies/tube. The number of KSHV vDNA in each supernatant sample was calculated by the LightCycler software version 3.5 (Roche Applied Science), adjusted by the cell count and expressed as copies/10^6 cells.

KSHV [3] = assay: Anti-KSHV activity in the presence of herpesvirus TK inhibitor 5'-ET; format: cell-based, Kaposi's sarcoma-associated herpesvirus; conditions: PMA-induced BCBL-1; 1 μM N-MCT or 10 μM CDV with 10, 20 or 50 μM 5'-ET
Method: as §1
Exponentially growing BCBL-1 cells or CEM-SS cells (a human T cell line) were washed three times with PBS and cultured in serum free AIM-V w/BSA medium (Invitrogen) at 2×10^5 cells/mL in the absence (unstimulated control) or presence of 20 ng/mL PMA. After 24 hours, unstimulated and PMA-stimulated cells were harvested, washed once with PBS and resuspended in […] radiolabeled compound [^3H]-(N)-MCT, [^3H]-CDV or [^3H]-GCV. Control cultures containing the same concentration of the test compounds but without the radiolabeled formulations were simultaneously set up in an identical manner to assess the cell counts and to evaluate their anti-KSHV activity. In selected experiments, 5′-ET was added at 10˜50 μM to investigate the changes in the anti-KSHV activity and intracellular phosphorylation profiles of the test compounds. The cells were harvested after 24 or 72 hours of incubation.

[4] = molecular target: T1, recombinant KSHV DNA polymerase (rPOL) and polymerase processivity factor (rPPF) (Human herpesvirus 8 type P, UniProt Q2HRD0); conditions: read-out: IC50 (μM) (mean ± SD), KSHV rPOL/rPPF-mediated DNA synthesis; 37° C., 60 min
T1 sequence (Q2HRD0 1-1012): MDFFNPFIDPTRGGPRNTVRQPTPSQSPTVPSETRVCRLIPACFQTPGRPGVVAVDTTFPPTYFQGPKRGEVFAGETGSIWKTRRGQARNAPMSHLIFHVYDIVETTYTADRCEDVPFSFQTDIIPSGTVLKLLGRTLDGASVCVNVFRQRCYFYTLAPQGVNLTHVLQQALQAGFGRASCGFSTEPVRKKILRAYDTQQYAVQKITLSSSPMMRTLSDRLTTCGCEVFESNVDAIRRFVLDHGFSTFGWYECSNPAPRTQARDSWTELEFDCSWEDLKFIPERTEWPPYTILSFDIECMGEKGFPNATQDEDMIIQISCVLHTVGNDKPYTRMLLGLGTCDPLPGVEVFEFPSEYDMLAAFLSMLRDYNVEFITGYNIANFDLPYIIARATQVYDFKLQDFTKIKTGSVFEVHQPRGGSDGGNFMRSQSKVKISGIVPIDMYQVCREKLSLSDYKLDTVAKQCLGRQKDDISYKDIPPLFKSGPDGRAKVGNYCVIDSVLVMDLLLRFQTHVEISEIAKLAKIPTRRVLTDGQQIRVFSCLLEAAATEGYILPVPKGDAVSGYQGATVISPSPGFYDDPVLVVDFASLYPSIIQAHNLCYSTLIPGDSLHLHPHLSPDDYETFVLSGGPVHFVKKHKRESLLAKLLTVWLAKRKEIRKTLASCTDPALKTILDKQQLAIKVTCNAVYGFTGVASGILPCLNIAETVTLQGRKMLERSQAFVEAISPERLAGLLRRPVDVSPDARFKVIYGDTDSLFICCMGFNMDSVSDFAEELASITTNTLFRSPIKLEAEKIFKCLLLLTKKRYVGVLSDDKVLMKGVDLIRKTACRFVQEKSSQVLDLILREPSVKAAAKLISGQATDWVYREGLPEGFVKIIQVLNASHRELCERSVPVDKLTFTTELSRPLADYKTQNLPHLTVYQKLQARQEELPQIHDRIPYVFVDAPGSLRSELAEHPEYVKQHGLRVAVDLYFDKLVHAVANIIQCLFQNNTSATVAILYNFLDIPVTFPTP
T1 sequence (F5HID2 1-396 partner): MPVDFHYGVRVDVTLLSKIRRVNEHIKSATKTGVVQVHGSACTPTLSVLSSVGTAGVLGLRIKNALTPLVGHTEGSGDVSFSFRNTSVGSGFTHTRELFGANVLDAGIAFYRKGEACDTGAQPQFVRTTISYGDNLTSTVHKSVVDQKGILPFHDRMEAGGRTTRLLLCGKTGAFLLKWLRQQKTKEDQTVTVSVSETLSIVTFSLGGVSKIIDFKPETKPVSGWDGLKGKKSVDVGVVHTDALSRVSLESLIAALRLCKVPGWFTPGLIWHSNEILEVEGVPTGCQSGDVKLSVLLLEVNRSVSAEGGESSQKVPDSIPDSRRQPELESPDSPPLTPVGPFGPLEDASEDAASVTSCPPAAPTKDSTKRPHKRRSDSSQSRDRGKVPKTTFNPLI
Method: KSHV rPOL and rPPF were expressed and purified from the recombinant baculovirus-vector infected Sf9 cells (Dorjsuren, D. et al. 2003 Protein Expr Purif 29:42-50). […] The amounts of newly synthesized DNA, which incorporated DIG-dUTP, were determined by the DIG detection kit (Roche Applied Science) according to the manufacturer's instructions.

HSV-2 = conditions: cited from earlier work
HSV-1 = conditions: cited from earlier work

Compound: Nc1ccn(C[C@@H](CO)OCP(=O)(O)O)c(=O)n1 [CDV, cidofovir]
cytotoxicity at anti-KSHV concentrations ([1]; 0.03 to 10 μM, PMA-induced BCBL-1 cells): without notable cytotoxicity
IC50 (KSHV [2]): 0.42 ± 0.07 µM
IC90 (KSHV [2]): 4.01 ± 2.05 µM
effect of adding 5'-ET on anti-KSHV activity (KSHV [3]): not affected

Compound: ganciclovir triphosphate [GCV-TP]
IC50 [4]: 24.6 ± 5.6 µM

Compound: Cc1cn([C@@]23C[C@H](O)[C@@H](CO)[C@@H]2C3)c(=O)[nH]c1=O [S-MCT, south-methanocarbathymidine]
antiviral activity against HSV-2 (HSV-2): no antiviral activity
antiviral activity against KSHV (KSHV [2]; data not shown): no antiviral activity
antiviral activity against HSV-1 (HSV-1): no antiviral activity

The next lines start with results.

level of phosphorylated metabolite in the presence of 50 μM 5'-ET (BCBL-1 cells): substantially decreased
Compound: Cc1cn([C@H]2C[C@H](O)[C@]3(COP(=O)(O)OP(=O)(O)O)C[C@H]23)c(=O)[nH]c1=O [N-MCT-DP]

IC50 (KSHV [2]): 0.96 ± 0.49 µM
IC90 (KSHV [2]): 7.11 ± 0.28 µM
Compound: Nc1nc(O)c2ncn(COC(CO)CO)c2n1 [GCV, ganciclovir]

level of phosphorylated metabolite in the presence of 50 μM 5'-ET (BCBL-1 cells): accumulation
Compound: Cc1cn(C2CC(O)C3(COP(=O)(O)O)CC23)c(=O)[nH]c1=O (stereo not drawn) [N-MCT-MP]

IC50 (KSHV [2]): 0.08 ± 0.03 µM
IC90 (KSHV [2]): 0.68 ± 0.1 µM
Compound: Cc1cn([C@H]2C[C@H](O)[C@]3(CO)C[C@H]23)c(=O)[nH]c1=O [N-MCT, North-methanocarbathymidine]
antiviral activity against HSV-2 (HSV-2): strong antiviral activity
50% cytotoxic concentration ([1]; human, 72 h): > 200 µM
effect of adding 5'-ET on anti-KSHV activity (KSHV [3]): marked increases in the level of cytoplasmic KSHV DNA
antiviral activity against HSV-1 (HSV-1): strong antiviral activity
